{"source": "patent US20160047819A1", "about": "“METHOD FOR DIAGNOSING VAGINAL INFECTIONS” (priority 2013, published 2016)", "system": "vaginal proteome (human proteins in vaginal fluid)", "test": "MS/MS proteomic analysis of vaginal fluid pools, BV-affected women before (BV) and after rifaximin/placebo treatment: human proteins", "format": "in vivo", "method": "Proteomic analysis was performed on 9 pools of vaginal isolates, grouped according to the status of the BV infection: • H pool (from 41 healthy women); BV pool (from 39 BV-affected women); • A-R pool (from 2 women who were in remission after rifaximin treatment-group A); • A-N pool (from 8 women who were not in remission after rifaximin treatment-group A); • B-R pool (from 5 women who were in remission after rifaximin treatment-group B); • B-N pool (from 5 women who were not in remission after rifaximin treatment-group B); • C-R pool (from 4 women who were in remission after rifaximin treatment-group C); • C-N (from 5 women who were not in remission after rifaximin treatment-group C); • D-N (from 10 women who were not in remission after placebo treatment-group D). Scheme of the vaginal fluids collected for testing the diagnostic method is represented in FIG. 1.\nIn these figures are reported the peptides in the fractionated pools of healthy women, women affected by BV and peptides of women treated with rifaximin. The treatment with rifaximin was at dosage of 100 mg/day for 5 days; (remission, A-R; no remission, A-N), 25 mg/5 days (remission, B-R; no remission, B-N), 100 mg/2 days (remission, C-R; no remission, C-N), and placebo for 5 days (D-N). Two types of comparisons were carried out: (i) between fractionated pools of proteins from vaginal fluid of healthy women (HF) versus fractionated pool of proteins from vaginal fluid of women affected by bacterial vaginosis (BVF); (ii) between whole pools of proteins from vaginal fluid of women affected by BV treated by administering different doses of rifaximin or placebo before (BV) and after (A-R, A-N, B-R, B-N, C-R, C-N, D-N) treatment. Fractioned pools of proteins are obtained, e.g., by separating the proteins by separation on membrane filtration with different membrane porosity, prior to MS/MS analysis.\nNine volumes of acetone: HCl (10:1) were added to the supernatant of the vaginal rinsing and proteins were precipitated by centrifuging at 12000 g for 10 min. The protein pellet was dissolved in 1 mL of 70% ethanol and the sample was spun at 12000 g for 10 min. One mL of acetone was added and the proteins were further precipitated by centrifugation at 12000 g for 5 min. After removing supernatant, pellet was dried by SpeedVac concentrator (Thermo Savant ISS110, Thermo Fisher Scientific, Waltham, Mass.) and then stored at −20° C.\nProtein extract was quantified using the 2-D Quant Kit (GE Healthcare, Uppsala, Sweden) according to the manufacturer's instructions.\nPatients who were diagnosed for BV at the study visit V1 were included in a multicentre, double-blind, randomised, placebo-controlled study (EudraCT: 2009-011826-32), that was performed to compare the efficacy of different doses of rifaximin vaginal tablets versus placebo for the treatment of BV. The patients underwent a randomisation visit and were distributed into 4 treatment groups: group A received 100 mg rifaximin vaginal tablet once daily for 5 days (n=10), group B received 25 mg rifaximin vaginal tablet once daily for 5 days (n=10), group C received 100 mg rifaximin vaginal tablet once daily for the first 2 days and placebo vaginal tablet for the remaining 3 days (n=9), group D received placebo vaginal tablet once daily for 5 days (n=10). Study medication was administered intra-vaginally at bedtime. After 7 to 10 days from the end of the therapy a follow-up visit (V3) was performed. Remission was evaluated at V3 according to Amsel's criteria (<3) and Gram stain Nugent score (≦3) (Table 1).\nStandardized vaginal rinsings with 2 mL of saline were collected for analysis at V1 and V3 by flushing and re-aspirating the fluid through a 22 Gauge needle in the left, central and right upper vaginal vaults. The vaginal rinsings were subsequently stored at −80° C. until use.\nMS/MS analysis was carried out for H and BV pools and for the whole BV, A-R, A-N, B-R, B-N, C-R, C-N and D-N pools containing 50 μg of protein each. […]", "data": [{"smiles": "CO[C@H]1/C=C/O[C@@]2(C)Oc3c(C)c(O)c4c(O)c(c5c(nc6cc(C)ccn65)c4c3C2=O)NC(=O)/C(C)=C\\C=C\\[C@H](C)[C@H](O)[C@@H](C)[C@@H](O)[C@@H](C)[C@H](OC(C)=O)[C@@H]1C", "note": "[rifaximin]", "values": [{"measurement": "Ratio: BV/R, Vitamin D-binding protein", "setting": "C-R pool (100 mg × 2 days, in remission) vs BV pool before treatment, vaginal fluid", "value": 0.0}, {"measurement": "Ratio X/H Sciellin (O95171)", "setting": "pool A-N after treatment", "value": 0.0}, {"measurement": "Ratio X/H Semenogelin-2 (Q02383)", "setting": "pool A-N after treatment", "value": 525.8}, {"measurement": "Ratio X/H Serine protease 27 (Q9BQR3)", "setting": "pool A-N after treatment", "value": 0.0}, {"measurement": "Ratio X/H Serine/threonine-protein kinase ULK1 (O75385)", "setting": "pool A-N after treatment", "value": "−5.1"}, {"measurement": "Ratio X/H Serotransferrin (P02787)", "setting": "pool A-N after treatment", "value": 1.6}, {"measurement": "Ratio X/H Serpin B3 (P29508)", "setting": "pool A-N after treatment", "value": 0.0}, {"measurement": "Ratio X/H Serpin B4 (P48594)", "setting": "pool A-N after treatment", "value": 0.0}, {"measurement": "Ratio X/H Serpin B5 (P36952)", "setting": "pool A-N after treatment", "value": "−3.3"}, {"measurement": "Ratio X/H Serpin B6 (P35237)", "setting": "pool A-N after treatment", "value": "−2.1"}, {"measurement": "Ratio X/H Serpin B9 (P50453)", "setting": "pool A-N after treatment", "value": "−2.6"}, {"measurement": "Ratio X/H Serpin B12 (Q96P63)", "setting": "pool A-N after treatment", "value": "−1.5"}, {"measurement": "Ratio X/H Serpin B13 (Q9UIV8)", "setting": "pool A-N after treatment", "value": 0.0}, {"measurement": "Ratio X/H Serum albumin (P02768)", "setting": "pool A-N after treatment", "value": "−1.5"}, {"measurement": "Ratio X/H Serum paraoxonase/arylesterase 1 (P27169)", "setting": "pool A-N after treatment", "value": 1.5}, {"measurement": "Ratio X/H Small proline-rich protein 3 (Q9UBC9)", "setting": "pool A-N after treatment", "value": 3.4}, {"measurement": "Ratio X/H Stanniocalcin-1 (P52823)", "setting": "pool A-N after treatment", "value": 1.9}, {"measurement": "Ratio X/H Sulfhydryl oxidase 1 (O00391)", "setting": "pool A-N after treatment", "value": "−1.6"}, {"measurement": "Ratio X/H Superoxide dismutase [Cu—Zn] (P00441)", "setting": "pool A-N after treatment", "value": 0.0}, {"measurement": "Ratio X/H Suprabasin (Q6UWP8)", "setting": "pool A-N after treatment", "value": 13.5}, {"measurement": "Ratio X/H Syntenin-1 (O00560)", "setting": "pool A-N after treatment", "value": 4.4}, {"measurement": "Ratio X/H Talin-1 (Q9Y490)", "setting": "pool A-N after treatment", "value": 0.0}, {"measurement": "Ratio X/H Tctex1 domain-containing protein 2 (Q8WW35)", "setting": "pool A-N after treatment", "value": "−1.6"}, {"measurement": "Ratio X/H Teneurin-3 (Q9P273)", "setting": "pool A-N after treatment", "value": 9.7}, {"measurement": "Ratio X/H Thioredoxin (P10599)", "setting": "pool A-N after treatment", "value": 0.0}, {"measurement": "Ratio X/H Transaldolase (P37837)", "setting": "pool A-N after treatment", "value": "−1.8"}, {"measurement": "Ratio X/H Transmembrane protease serine 11D (O60235)", "setting": "pool A-N after treatment", "value": "−1.8"}, {"measurement": "Ratio X/H Transthyretin (P02766)", "setting": "pool A-N after treatment", "value": 0.0}, {"measurement": "Ratio X/H Tumor protein D54 (O43399)", "setting": "pool A-N after treatment", "value": 0.0}, {"measurement": "Ratio X/H UTP--glucose-1-phosphate uridylyltransferase (Q16851)", "setting": "pool A-N after treatment", "value": 0.0}, {"measurement": "Ratio X/H UV excision repair protein RAD23 homolog B (P54727)", "setting": "pool A-N after treatment", "value": "−2.9"}, {"measurement": "Ratio X/H Uronyl 2-sulfotransferase (Q9Y2C2)", "setting": "pool A-N after treatment", "value": "−786.0"}, {"measurement": "Ratio X/H Versican core protein (P13611)", "setting": "pool A-N after treatment", "value": 0.0}, {"measurement": "Ratio X/H Vinculin (P18206)", "setting": "pool A-N after treatment", "value": 0.0}, {"measurement": "Ratio X/H Vitamin D-binding protein (P02774)", "setting": "pool A-N after treatment", "value": 0.0}, {"measurement": "Ratio X/H Werner syndrome ATP-dependent helicase (Q14191)", "setting": "pool A-N after treatment", "value": 302.6}, {"measurement": "Ratio X/H Zinc finger protein 185 (O15231)", "setting": "pool A-N after treatment", "value": 2.2}, {"measurement": "Ratio X/H Zinc finger protein 335 (Q9H4Z2)", "setting": "pool A-N after treatment", "value": 0.0}, {"measurement": "Ratio X/H Zinc-alpha-2-glycoprotein (P25311)", "setting": "pool A-N after treatment", "value": 0.0}, {"measurement": "Ratio X/H Zyxin (Q15942)", "setting": "pool A-N after treatment", "value": "−1.7"}, {"measurement": "Ratio X/H Sciellin (O95171)", "setting": "pool A-R after treatment", "value": 0.0}, {"measurement": "Ratio X/H Semenogelin-2 (Q02383)", "setting": "pool A-R after treatment", "value": 1.9}, {"measurement": "Ratio X/H Serine protease 27 (Q9BQR3)", "setting": "pool A-R after treatment", "value": "−1.7"}, {"measurement": "Ratio X/H Serine/threonine-protein kinase ULK1 (O75385)", "setting": "pool A-R after treatment", "value": "−2.2"}, {"measurement": "Ratio X/H Serotransferrin (P02787)", "setting": "pool A-R after treatment", "value": "−1.5"}, {"measurement": "Ratio X/H Serpin B3 (P29508)", "setting": "pool A-R after treatment", "value": 3.2}, {"measurement": "Ratio X/H Serpin B4 (P48594)", "setting": "pool A-R after treatment", "value": 0.0}, {"measurement": "Ratio X/H Serpin B5 (P36952)", "setting": "pool A-R after treatment", "value": "−7.9"}, {"measurement": "Ratio X/H Serpin B6 (P35237)", "setting": "pool A-R after treatment", "value": 0.0}, {"measurement": "Ratio X/H Serpin B9 (P50453)", "setting": "pool A-R after treatment", "value": "−4.1"}, {"measurement": "Ratio X/H Serpin B12 (Q96P63)", "setting": "pool A-R after treatment", "value": "−2.7"}, {"measurement": "Ratio X/H Serpin B13 (Q9UIV8)", "setting": "pool A-R after treatment", "value": 0.0}, {"measurement": "Ratio X/H Serum albumin (P02768)", "setting": "pool A-R after treatment", "value": "−2.3"}, {"measurement": "Ratio X/H Serum paraoxonase/arylesterase 1 (P27169)", "setting": "pool A-R after treatment", "value": 0.0}, {"measurement": "Ratio X/H Small proline-rich protein 3 (Q9UBC9)", "setting": "pool A-R after treatment", "value": 6.6}, {"measurement": "Ratio X/H Stanniocalcin-1 (P52823)", "setting": "pool A-R after treatment", "value": 3.4}, {"measurement": "Ratio X/H Sulfhydryl oxidase 1 (O00391)", "setting": "pool A-R after treatment", "value": 0.0}, {"measurement": "Ratio X/H Superoxide dismutase [Cu—Zn] (P00441)", "setting": "pool A-R after treatment", "value": "−1.8"}, {"measurement": "Ratio X/H Suprabasin (Q6UWP8)", "setting": "pool A-R after treatment", "value": 17.9}, {"measurement": "Ratio X/H Syntenin-1 (O00560)", "setting": "pool A-R after treatment", "value": 1.9}, {"measurement": "Ratio X/H Talin-1 (Q9Y490)", "setting": "pool A-R after treatment", "value": "−1.6"}, {"measurement": "Ratio X/H Tctex1 domain-containing protein 2 (Q8WW35)", "setting": "pool A-R after treatment", "value": 1.8}, {"measurement": "Ratio X/H Teneurin-3 (Q9P273)", "setting": "pool A-R after treatment", "value": 33.3}, {"measurement": "Ratio X/H Thioredoxin (P10599)", "setting": "pool A-R after treatment", "value": 2.5}, {"measurement": "Ratio X/H Transaldolase (P37837)", "setting": "pool A-R after treatment", "value": "−1.9"}, {"measurement": "Ratio X/H Transmembrane protease serine 11D (O60235)", "setting": "pool A-R after treatment", "value": 0.0}, {"measurement": "Ratio X/H Transthyretin (P02766)", "setting": "pool A-R after treatment", "value": 0.0}, {"measurement": "Ratio X/H Tumor protein D54 (O43399)", "setting": "pool A-R after treatment", "value": 2.2}, {"measurement": "Ratio X/H UTP--glucose-1-phosphate uridylyltransferase (Q16851)", "setting": "pool A-R after treatment", "value": 0.0}, {"measurement": "Ratio X/H UV excision repair protein RAD23 homolog B (P54727)", "setting": "pool A-R after treatment", "value": "−2.8"}, {"measurement": "Ratio X/H Uronyl 2-sulfotransferase (Q9Y2C2)", "setting": "pool A-R after treatment", "value": 2.0}, {"measurement": "Ratio X/H Versican core protein (P13611)", "setting": "pool A-R after treatment", "value": 0.0}, {"measurement": "Ratio X/H Vinculin (P18206)", "setting": "pool A-R after treatment", "value": 0.0}, {"measurement": "Ratio X/H Vitamin D-binding protein (P02774)", "setting": "pool A-R after treatment", "value": "−1.7"}, {"measurement": "Ratio X/H Werner syndrome ATP-dependent helicase (Q14191)", "setting": "pool A-R after treatment", "value": 331.1}, {"measurement": "Ratio X/H Zinc finger protein 185 (O15231)", "setting": "pool A-R after treatment", "value": 5.2}, {"measurement": "Ratio X/H Zinc finger protein 335 (Q9H4Z2)", "setting": "pool A-R after treatment", "value": 0.0}, {"measurement": "Ratio X/H Zinc-alpha-2-glycoprotein (P25311)", "setting": "pool A-R after treatment", "value": 0.0}]}]}
